From the OPERA property sets (Mansouri et al. 2018)
Peptide text beside a SMILES is read from it.

Row | Compound | logP
1 | COC(N)=O | -0.66
2 | N#Cc1cccc(OCC(=O)O)c1 | 0.95
3 | CCCCCN | 1.49
4 | O=c1ccc(=O)[nH][nH]1 | -0.84
5 | C=CCN1CCc2nc(N)sc2CC1 | 1.48
6 | N#CCCc1ccccc1 | 1.72
7 | CCC(C(c1ccc(OC)cc1)c1ccc(OC)cc1)[N+](=O)[O-] (stereo unspecified) | 4.45
8 | Cc1ccnc2c(O)ccc(O)c12 | 1.59
9 | CC(=O)Nc1ccc([N+](=O)[O-])cc1 | 1.66
10 | O=C(NC(CO)C(O)c1ccc(I)cc1)C(Cl)Cl (stereo unspecified) | 2.22
11 | NC(=O)CCc1ccccn1 | -0.27
12 | Brc1ccc2[nH]ccc2c1 | 3
13 | CN(C)C(=O)C12CC3CC(CC(C3)C1)C2 | 2.55
14 | Clc1c(Cl)c(Cl)c2ccccc2c1Cl | 5.75
15 | Cn1c([N+](=O)[O-])cnc1-c1ccc(C(N)=O)cc1 | 0.98
16 | CCC(C)OC(C)=O (stereo unspecified) | 1.72
17 | NC(Cc1ccccc1)Cc1ccccc1 | 3.35
18 | COC1=C(N2CC2)C(=O)C(OC)=C(N2CC2)C1=O | 0.17
19 | CC(=O)Oc1ccc(C(N)=O)cc1 | 0.27
20 | CCCN(CC)C(CC)C(=O)Nc1c(C)cccc1C (stereo unspecified) | 3.69
21 | CCCCCCOc1ccccc1NC(=O)OCCN1CCCCC1 | 5.29
22 | N#Cc1c[nH]c(=O)[nH]c1=O | -0.93
23 | Cc1ccc(C)cc1 | 3.15
24 | CNC(=O)Oc1ccc(SC)cc1 | 1.92

Row | Compound | logP
25 | O=Cc1c[nH]c2ccccc12 | 1.68
26 | C=CCCCCCCC | 5.15
27 | CCC1Nc2cc(Cl)c(S(N)(=O)=O)cc2S(=O)(=O)N1 (stereo unspecified) | 0.3
28 | O=[N+]([O-])c1cnc2ccccc2c1 | 1.97
29 | CC(=O)CCC(=O)O | -0.49
30 | O=[N+]([O-])c1ncc[nH]1 | 0.15
31 | COc1cccc(S(C)(=O)=O)c1 | 0.76
32 | CNC(=O)Oc1ccc(Cl)c(Cl)c1 | 2.8
33 | CN1CCN(CCCN2c3ccccc3Sc3ccc(Cl)cc32)CC1 | 4.88
34 | O=[N+]([O-])c1ccc(O/N=C/c2cc(Br)c(O)c(Br)c2)c([N+](=O)[O-])c1 | 3.3
35 | O=C(COc1ccccc1)NNCc1ccccc1 | 2.16
36 | O=Cc1ccncc1 | 0.43
37 | Cc1n[nH]c(C(=O)N2CCCCCC2)c1[N+](=O)[O-] | 1.15
38 | CNc1cnn(-c2cccc(C(F)(F)F)c2)c(=O)c1Cl | 2.3
39 | C#C[C@]1(O)CC[C@H]2[C@@H]3CCC4=CC(=O)CC[C@@H]4[C@H]3CC[C@@]21C | 2.97
40 | NNC(=O)c1ccccc1 | 0.19
41 | O=c1c(O)c(-c2ccc(O)cc2O)oc2cc(O)cc(O)c12 | 1.54
42 | CC(=O)O[C@]1(C(C)=O)CC[C@H]2[C@@H]3C[C@H](C)C4=CC(=O)C=C[C@]4(C)[C@@]3(F)[C@@H](O)C[C@@]21C | 1.5
43 | CC(C)c1cc([N+](=O)[O-])cc([N+](=O)[O-])c1O | 3.1
44 | CC(C)N(CCC(C(N)=O)c1ccc(-c2ccccc2)cc1)C(C)C (stereo unspecified) | 3.66
45 | COP(=O)(OC)C(O)C(Cl)(Cl)Cl (stereo unspecified) | 0.51
46 | CCC(=O)OC1(C(=O)CCl)C(C)CC2C3CCC4=CC(=O)C=CC4(C)C3C(O)CC21C (stereo unspecified) | 3.34
47 | Cc1ccc(C(=O)O)c(O)c1 | 2.99
48 | CC(=O)OCC1=C(C(=O)O)N2C(=O)[C@@H](NC(=O)CC#N)[C@H]2SC1 | -0.45

Row | Compound | logP
49 | COC(=O)c1cccnc1 | 0.83
50 | CN(C)c1cccc2cccnc12 | 2.73
51 | CCCNC(C)CC (stereo unspecified) | 1.91
52 | CCN(CC)CCNC(=O)c1cc(I)c(N)cc1OC | 3.09
53 | Oc1ccccc1C(F)(F)F | 2.8
54 | C[C@@H]1C[C@H]2[C@@H]3CCC4=CC(=O)C=C[C@]4(C)[C@@]3(F)[C@@H](O)C[C@]2(C)[C@@]1(O)C(=O)CO | 1.83
55 | CC(O)C(C)O (stereo unspecified) | -0.92
56 | CCOC(=O)C(=Cc1ccc(Cl)cc1Cl)C(C)=O | 3.67
57 | Nc1ccc(C(=O)Oc2ccccc2)c(O)c1 | 3.15
58 | COc1cccnc1CCCCNc1ncc(Cc2ccc(C)nc2)c(=O)[nH]1 | 2.58
59 | NNC(=O)c1ccc([N+](=O)[O-])cc1 | 0.35
60 | OCC(O)COc1ccccc1 (stereo unspecified) | 0.7
61 | CC[C@H](C)[C@H](NC(=O)[C@H](CC(C)C)NC(C)=O)C(N)=O (Ac-Leu-Ile-NH2) | 0.68
62 | [O-][n+]1cccc(O)c1 | -0.61
63 | O=[N+]([O-])c1ccc2oncc2c1 | 1.46
64 | CNP(=O)(OC)Oc1ccc(C(C)(C)C)cc1Cl (stereo unspecified) | 3.42
65 | Cc1cscn1 | 0.97
66 | O=C(NC(=O)c1ccccc1O)c1ccccc1 | 1.38
67 | CCC(=O)O | 0.33
68 | N#Cc1cccc(C#N)c1 | 0.8
69 | CN(C)CCOC(=O)c1ccc([N+](=O)[O-])cc1 | 1.7
70 | CC(=O)Nc1nccs1 | 0.76
71 | CCCCOc1ccc(OC(=O)NC)cc1 | 2.86
72 | NS(=O)(=O)c1ccc2ncccc2c1 | 0.56

Row | Compound | logP
73 | CCOP(=S)(OCC)Oc1ccc(N)cc1 | 2.6
74 | c1ccc(-c2nc3ccccc3s2)cc1 | 4.26
75 | CNN | -1.05
76 | CCCCCCCCCC(=O)OC | 4.41
77 | CC(C)CC#N | 1.07
78 | CC(C)c1cnc(NS(=O)(=O)c2ccc(N)cc2)nc1 | 1.23
79 | CCN(CC)CCNC(=O)c1ccccc1OC | 1.98
80 | COc1ccc(CC(C)N)cc1 (stereo unspecified) | 1.77
81 | Cc1ccc(C=NO)cc1 | 2.4
82 | C=CC(=O)O | 0.35
83 | CN(C)c1ccc(Cl)nn1 | 0.98
84 | O=C1CCC(=O)N1c1cccc(I)c1 | 1.39
85 | Nc1nc(N)nc(-c2cccc(C(F)(F)F)c2)n1 | 2.67
86 | O=C1NC(=O)c2ccccc21 | 1.15
87 | CCCCCCOC1OC(CO)C(O)C(O)C1O (stereo unspecified) | 0.16
88 | Nc1cccc(OC(=O)c2ccc(N)cc2O)c1 | 2.08
89 | Cc1ccc(C)c(O)c1 | 2.33
90 | c1ccc2c(c1)CCC2 | 3.18
91 | c1cscn1 | 0.44
92 | CCC1(C2=CCCCC2)C(=O)NC(=O)N(C)C1=O (stereo unspecified) | 2.25
93 | CCCc1ccc(C(=O)OCCN(C)C)cc1 | 3.63
94 | CCCCC(O)CC (stereo unspecified) | 2.24
95 | CCC(=O)c1ccc(O)cc1 | 2.03
96 | Nc1cccc2nc3ccccc3cc12 | 2.47

Row | Compound | logP
97 | Oc1ccc(Nc2ccccc2)cc1 | 2.82
98 | Clc1ccc(-c2ccc(Cl)c(Cl)c2Cl)cc1 | 5.84
99 | O=c1[nH]cc(F)c(=O)[nH]1 | -0.89
100 | CCOC(=O)c1cccc([N+](=O)[O-])c1 | 2.35
101 | COc1ccc(NS(=O)(=O)c2ccc(N)cc2)nn1 | 0.32
102 | NNc1ccccc1 | 1.25
103 | COP(=S)(OC)Oc1nc(Cl)c(Cl)cc1Cl | 4.31
104 | O=C(c1ccccc1)c1ccncc1 | 1.98
105 | CCCCCCCCOc1cccc(NC(=O)OCCN2CCCCC2)c1 | 5.82
106 | c1ccc2occc2c1 | 2.67
107 | O=C(O)Cc1ccc(Br)cc1 | 2.31
108 | CCCCCOCc1ccccc1NC(=O)OCCN1CCCCC1 | 4.42
109 | Nc1ccccc1SSc1ccccc1N | 3.05
110 | Brc1ccc(-c2cc3ccccn3c2)cc1 | 5.43
111 | CN(C)c1ccc(NS(=O)(=O)c2ccc(N)cc2)cc1 | 1.57
112 | Cc1ccc2cc3c(ccc4ccccc43)c3c2c1CC3 | 6.42
113 | NNC(=O)c1ccccc1Br | 0.26
114 | Clc1nc(Cl)c(Cl)[nH]1 | 1.85
115 | Cc1ccccc1C#N | 2.21
116 | CCCC(=NOCC)C1C(=O)CC2(CCC(C)C2)OC1=O (stereo unspecified) | 3.66
